Reference: the supplement of paper PMC11451515

Columns and labels:
Details in all cases: 48 h
[1] = tested on: NOMO1; test: cell viability relative to DMSO control; higher = less cytotoxic
Outline: (§1)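 Three leukemia lines were tested: NOMO1 and SEM at 500 cells/well and P12-Ichikawa at 1000 cells/well. Each was adapted for at least four passages in each medium and seeded in 5 μl in 1536-well plates, and library compounds in DMSO were pin-dosed from 47 μM to 0.79 nM in 11 threefold steps. After 48 h at 37°C, CellTiter-Glo One luminescence was read. Viability is a percentage relative to DMSO wells on each plate, with cell-free wells as background.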

[2] = tested on: P12-Ichikawa; test: as above
Outline: as §1

[3] = tested on: SEM cells; test: as above
Outline: as §1

[4] = tested on: NOMO1; test: AUC of viability dose-response curve (% viability x log10 dose units); higher = less sensitive
Outline: (§2)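 Viability of medium-adapted leukemia cells was measured by CellTiter-Glo One luminescence after 48 h at 37°C with library compounds in DMSO. Doses were 11 threefold steps from 47 μM to 0.79 nM, in 1536-well plates at 500 or 1000 cells/well. Signals were normalised per plate to DMSO and cell-free wells and fitted with a four-parameter log-logistic model on log10 dose. Area under the curve was integrated by trapezoidal rule, with curves exceeding full viability scaled and failed quality-control curves removed.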

[5] = tested on: P12-Ichikawa; test: as above
Outline: as §2

[6] = tested on: SEM cells; test: as above
Outline: as §2

Cc1ccc(NC(=O)c2ccc(CN3CCN(C)CC3)cc2)cc1Nc1nc(-c2cccnc2)cs1
cell viability [%]
Details | [1] | [2] | [3]
HPLM + 10% dialyzed FBS, 0.000781 µM | 103 | 102 | 56.2
HPLM + 10% dialyzed FBS, 0.00234 µM | 98.1 | 104 | 90.4
HPLM + 10% dialyzed FBS, 0.00702 µM | 99.3 | 106 | 87.9
HPLM + 10% dialyzed FBS, 0.0211 µM | 105 | 103 | 65.4
HPLM + 10% dialyzed FBS, 0.0632 µM | 96.6 | 106 | 53.1
HPLM + 10% dialyzed FBS, 0.19 µM | 89.3 | 102 | 47.6
HPLM + 10% dialyzed FBS, 0.569 µM | 82.6 | 101 | 42.4
HPLM + 10% dialyzed FBS, 1.71 µM | 75.3 | 92.7 | 32.7
HPLM + 10% dialyzed FBS, 5.12 µM | 76.8 | 70.5 | 28.2
HPLM + 10% dialyzed FBS, 15.4 µM | 73 | 57 | 20.2
HPLM + 10% dialyzed FBS, 46.1 µM | 75.2 | 41.3 | 24.6
RPMI 5 mM glucose + 10% FBS, 0.000781 µM | 95.9 | 105 | 64.8
RPMI 5 mM glucose + 10% FBS, 0.00234 µM | 104 | 101 | 99
RPMI 5 mM glucose + 10% FBS, 0.00702 µM | 93 | 110 | 93.2
RPMI 5 mM glucose + 10% FBS, 0.0211 µM | 94.9 | 113 | 71.2
RPMI 5 mM glucose + 10% FBS, 0.0632 µM | 99.4 | 100 | 70.9
RPMI 5 mM glucose + 10% FBS, 0.19 µM | 102 | 111 | 51.7
RPMI 5 mM glucose + 10% FBS, 0.569 µM | 89.3 | 89.1 | 43.7
RPMI 5 mM glucose + 10% FBS, 1.71 µM | 108 | 89.7 | 34.8
RPMI 5 mM glucose + 10% FBS, 5.12 µM | 107 | 63 | 23.6
RPMI 5 mM glucose + 10% FBS, 15.4 µM | 106 | 50.4 | 15.7
RPMI 5 mM glucose + 10% FBS, 46.1 µM | 74.6 | 49.7 | 17.1
RPMI 5 mM glucose + 10% dialyzed FBS, 0.000781 µM | 97.2 | 108 | 54.5
RPMI 5 mM glucose + 10% dialyzed FBS, 0.00234 µM | 102 | 112 | 88.4
RPMI 5 mM glucose + 10% dialyzed FBS, 0.00702 µM | 98.6 | 109 | 74.7
RPMI 5 mM glucose + 10% dialyzed FBS, 0.0211 µM | 104 | 109 | 65.1
RPMI 5 mM glucose + 10% dialyzed FBS, 0.0632 µM | 93.4 | 110 | 63.6
RPMI 5 mM glucose + 10% dialyzed FBS, 0.19 µM | 111 | 108 | 46.7
RPMI 5 mM glucose + 10% dialyzed FBS, 0.569 µM | 87.1 | 95.5 | 37.5
RPMI 5 mM glucose + 10% dialyzed FBS, 1.71 µM | 86.1 | 95.1 | 29.7
RPMI 5 mM glucose + 10% dialyzed FBS, 5.12 µM | 85.9 | 62.1 | 22.1
RPMI 5 mM glucose + 10% dialyzed FBS, 15.4 µM | 78.8 | 46.1 | 10.9
RPMI 5 mM glucose + 10% dialyzed FBS, 46.1 µM | 74.3 | 45.4 | 18

AUC of viability dose-response curve
Details | [4] | [5] | [6]
HPLM + 10% dialyzed FBS | 417 | 417 | 238
RPMI 5 mM glucose + 10% FBS | 468 | 405 | 255
RPMI 5 mM glucose + 10% dialyzed FBS | 440 | 406 | 223

COc1cc2c(cc1-c1c(C)noc1C)ncc1[nH]c(=O)n([C@H](C)c3ccccn3)c12
cell viability [%]
Details | [1] | [2] | [3]
HPLM + 10% dialyzed FBS, 0.000781 µM | – | 107 | –
HPLM + 10% dialyzed FBS, 0.00234 µM | – | 109 | –
HPLM + 10% dialyzed FBS, 0.00702 µM | – | 111 | –
HPLM + 10% dialyzed FBS, 0.0211 µM | – | 111 | –
HPLM + 10% dialyzed FBS, 0.0632 µM | – | 115 | –
HPLM + 10% dialyzed FBS, 0.19 µM | – | 105 | –
HPLM + 10% dialyzed FBS, 0.569 µM | – | 103 | –
HPLM + 10% dialyzed FBS, 1.71 µM | – | 86.2 | –
HPLM + 10% dialyzed FBS, 5.12 µM | – | 44.2 | –
HPLM + 10% dialyzed FBS, 15.4 µM | – | 48.9 | –
HPLM + 10% dialyzed FBS, 46.1 µM | – | 12.2 | –
RPMI 5 mM glucose + 10% FBS, 0.000781 µM | 122 | 107 | 117
RPMI 5 mM glucose + 10% FBS, 0.00234 µM | 110 | 110 | 106
RPMI 5 mM glucose + 10% FBS, 0.00702 µM | 114 | 101 | 140
RPMI 5 mM glucose + 10% FBS, 0.0211 µM | 115 | 111 | 120
RPMI 5 mM glucose + 10% FBS, 0.0632 µM | 111 | 115 | 119
RPMI 5 mM glucose + 10% FBS, 0.19 µM | 99.8 | 99.2 | 114
RPMI 5 mM glucose + 10% FBS, 0.569 µM | 108 | 110 | 102
RPMI 5 mM glucose + 10% FBS, 1.71 µM | 98.2 | 92.1 | 65.4
RPMI 5 mM glucose + 10% FBS, 5.12 µM | 30.8 | 48.3 | 8.34
RPMI 5 mM glucose + 10% FBS, 15.4 µM | 30.5 | 48.5 | 6.3
RPMI 5 mM glucose + 10% FBS, 46.1 µM | 22 | 23.1 | 3.15
RPMI 5 mM glucose + 10% dialyzed FBS, 0.000781 µM | 114 | 112 | 101
RPMI 5 mM glucose + 10% dialyzed FBS, 0.00234 µM | 124 | 106 | 94.8
RPMI 5 mM glucose + 10% dialyzed FBS, 0.00702 µM | 98.3 | 109 | 110
RPMI 5 mM glucose + 10% dialyzed FBS, 0.0211 µM | 118 | 104 | 119
RPMI 5 mM glucose + 10% dialyzed FBS, 0.0632 µM | 124 | 105 | 101
RPMI 5 mM glucose + 10% dialyzed FBS, 0.19 µM | 117 | 105 | 96.1
RPMI 5 mM glucose + 10% dialyzed FBS, 0.569 µM | 118 | 101 | 76.5
RPMI 5 mM glucose + 10% dialyzed FBS, 1.71 µM | 102 | 90.2 | 49.7
RPMI 5 mM glucose + 10% dialyzed FBS, 5.12 µM | 30.1 | 52.4 | 6.42
RPMI 5 mM glucose + 10% dialyzed FBS, 15.4 µM | 35.6 | 48.6 | 6.4
RPMI 5 mM glucose + 10% dialyzed FBS, 46.1 µM | 22.7 | 22.4 | 3.1

AUC of viability dose-response curve
Details | [4] | [5] | [6]
HPLM + 10% dialyzed FBS | 373 | 380 | 336
RPMI 5 mM glucose + 10% FBS | 382 | 396 | 336
RPMI 5 mM glucose + 10% dialyzed FBS | 382 | 393 | 323
